Measurements as given in patent EP4755880A1, “SUBSTITUTED NITROGEN-CONTAINING BICYCLIC COMPOUND AND USE THEREOF” (Sunshine Lake Pharma Co., Ltd., priority 2023, dated 2025).
Each block holds one compound with its values, some of them ahead of it.

What was measured:
[1] = Pharmacokinetics in SD rats after intravenous injection or gavage; conditions: rat, plasma
Description: (§1) The compounds of the present invention were administered to test animals in the form of 5% DMSO + 30% PEG400 + 65% physiological saline, 10% DMSO + 10% Kolliphor HS15 + 80% Saline, 10% DMSO + 89% (25% SBE-B-CD) + (2% HCl), 20% PEG400 + 80% sterile water for injection, or 10% DMA+ 10% HS15 + 30% PEG400 + 50% sterile aqueous solution for injection. Animals were fasted for 12 hours before administration but had free access to water. For the intravenous administration group, the dose was 1 mg/kg. Blood samples (approximately 0.15 mL) were collected intravenously at the following time points after administration: 0.083, 0.25, 0.5, 1.0, 2.0, 4.0, 6.0, 8.0 and 24 h (dogs) or 0.083, 0.25, 0.5, 1.0, 2.0, 5.0, 7.0 and 24 h (mice and rats) or 0.083, 0.25, 0.5, 1.0, 2.0, 6.0, 8.0 and 24 h (monkeys). EDTA-K2 was pre-added to the blood collection tube as an anticoagulant. The blood samples were centrifuged at 12,000 rpm for 2 minutes, and plasma was collected and stored at -20 °C or - 70 °C. For the gavage administration group, the dosage was 1 mg/kg (mice, dogs, and monkeys) or 5 mg/kg (rats). After administration, venous blood samples (approximately 0.15 mL) were collected at the following time points: 0.25, 0.5, 1.0, 2.0, 4.0, 6.0, 8.0, and 24 h (dogs) or 0.25, 0.5, 1.0, 2.0, 5.0, 7.0, and 24 h (mice and rats) or 0.25, 0.5, 1.0, 2.0, 6.0, 8.0, and 24 h (monkeys). EDTA-K2 was pre-added to the blood collection tube as an anticoagulant. The blood samples were centrifuged at 12,000 rpm for 2 minutes, and plasma was collected and stored at -20 °C or -70 °C.
(§2) The collected plasma samples were processed (frozen plasma was thawed at room temperature, vortexed for 15 s to mix, 10-20 µL of plasma was taken, 120-150 µL of acetonitrile solution containing internal standard was added, vortexed for 5 min to mix, centrifuged at 4,000 rpm for 5 min, 100 µL of supernatant was taken, and 120-150 Ml/water (v/v = 1/1) was added and mixed). The concentration of compounds in the plasma was then analyzed by LC-MS/MS.
(§3) Table D Pharmacokinetic parameters of compounds of the present invention in SD rats

DLD-1 BRCA2(-/-) cells = assay: Inhibition of proliferation of DLD-1 BRCA2(-/-) cells (CTG method); type: cell-based; conditions: Homo sapiens, DLD-1, 168 h; 7 days incubation, CellTiter-Glo
Outline: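 DLD-1 BRCA2(-/-) cells, 1,000 per well, attached overnight, then exposed to compound at final 10000 to 0.152 nM (4-fold series) in triplicate for 7 days at 37 °C, 5% CO2. Viability by CellTiter-Glo luminescence; IC50 for proliferation inhibition from a fitted curve.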

[2] = Pharmacokinetics in mice after intravenous injection or gavage; conditions: BALB/c, mouse, plasma
Description: as §1, §2

PARP2 = PARP2 (Homo sapiens, UniProt Q9UGN5); assay: biochemical;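 also: PARP2 enzyme ELISA on histone-coated plates, Strep-HRP detection with chemiluminescence read-out, 10 min compound preincubation with enzyme, inhibition scaled between Max and Min signal controls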
PARP2, sequence (Q9UGN5 whole entry): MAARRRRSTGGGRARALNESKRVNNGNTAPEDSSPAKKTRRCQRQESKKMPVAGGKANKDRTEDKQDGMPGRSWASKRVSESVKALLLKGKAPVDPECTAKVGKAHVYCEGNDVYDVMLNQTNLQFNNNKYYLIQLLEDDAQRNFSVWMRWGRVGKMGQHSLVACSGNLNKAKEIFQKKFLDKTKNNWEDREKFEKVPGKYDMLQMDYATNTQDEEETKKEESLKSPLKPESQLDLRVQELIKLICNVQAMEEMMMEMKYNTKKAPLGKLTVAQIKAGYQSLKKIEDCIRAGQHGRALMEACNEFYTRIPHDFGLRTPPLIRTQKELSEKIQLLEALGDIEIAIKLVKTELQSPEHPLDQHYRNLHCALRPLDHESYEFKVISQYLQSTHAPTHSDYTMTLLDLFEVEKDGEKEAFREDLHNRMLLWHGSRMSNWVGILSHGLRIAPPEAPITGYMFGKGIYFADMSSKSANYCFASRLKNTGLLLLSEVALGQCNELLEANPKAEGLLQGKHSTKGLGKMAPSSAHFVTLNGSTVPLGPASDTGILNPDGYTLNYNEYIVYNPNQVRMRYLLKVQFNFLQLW
Description: Experimental Objective: To evaluate the inhibitory effect of the compounds of the present invention on the enzyme activities of PARP1 and PARP2 using ELISA.
• 1. histone-coated 384-well plates was prepared: 25 µL of histone solution was added to each well and incubated overnight at 4 °C. • 2. PBST buffer, blocking buffer (PBS buffer with 5% BSA and 0.05% Tween-20 added) and detection buffer (20 mM HEPES pH 7.5 + 100 mM NaCl + 2 mM DTT + 0.002% Tween-20 + 0.1% BSA) were prepared. • 3. The histone-coated 3 84-well plate was washed three times with PBST buffer, blocked at room temperature with 50 µL blocking buffer for 1 hour, and then washed three times with PBST buffer. • 4. Test compounds were prepared as 2000-fold stock solutions in DMSO. 50 nL of the stock solution was mixed with 19.95 µL detection buffer, and 5 µL of the gradient-diluted test compound was transferred to each well. • 5. Enzymatic reaction (PARP1): PARP1 & DNA mix was pre-incubated at 25 °C for 10 minutes. 10 µL of the PARP1 & DNA mix was added to each well and incubated with the test compound at room temperature for 10 minutes. […] Finally, the 384-well plate was washed three times with PBST buffer. Enzymatic reaction (PARP2): PARP2 was pre-incubated at 25 °C for 10 minutes. 10 µL of PARP2 was added to each well and incubated with the test compound at room temperature for 10 minutes. […] Finally, the 384-well plate was washed three times with PBST buffer. • 6. Detection (PARP1): 20 µL of anti-Poly/Mono-ADP Ribose Rabbit mAb was added and incubated at room temperature for 1.5 hours, followed by three washes of the 384-well plate with PBST buffer. Then, 20 µL of diluted anti-rabbit IgG, HRP-linked Antibody (diluted 1:2000 in blocking buffer) was added and incubated at room temperature for 1 hour. After washing the plate three times with PBST buffer, 25 µL of a 1:1 mixture of Femto-ECL Substrate A and Femto-ECL Substrate B was added. Detection (PARP2): 25 µL of Strep-HRP was added and incubated at room temperature for 1 hour, followed by three washes of the 384-well plate with PBS buffer. Then, 25 µL of a 1:1 mixture of Femto-ECL Substrate A and Femto-ECL Substrate B was added. • 7. Chemiluminescence intensity was measured using an Envision multimode microplate reader. • 8. Data Processing
The inhibition rate was calculated in Excel using formula (1). inh% = (Max−Signal)/(Max−Min)*100 [formula]
The IC50 value was obtained by fitting the data in XL-Fit using formula (2). Y = bottom + (top−bottom)/(1+(IC50/X)*HillSlope); [formula] wherein Y is the inhibition percentage and X is the compound concentration.

PARP1 = PARP1 (Homo sapiens, UniProt P09874); assay: Inhibition of PARP1 enzyme activity (ELISA, chemiluminescence); type: biochemical; conditions: for IC50: ELISA, histone-coated plate, NAD+, 60 min at 25 °C; for Selectivity PARP2/PARP1: ratio of PARP2 IC50 to PARP1 IC50
PARP1, sequence (P09874 whole entry): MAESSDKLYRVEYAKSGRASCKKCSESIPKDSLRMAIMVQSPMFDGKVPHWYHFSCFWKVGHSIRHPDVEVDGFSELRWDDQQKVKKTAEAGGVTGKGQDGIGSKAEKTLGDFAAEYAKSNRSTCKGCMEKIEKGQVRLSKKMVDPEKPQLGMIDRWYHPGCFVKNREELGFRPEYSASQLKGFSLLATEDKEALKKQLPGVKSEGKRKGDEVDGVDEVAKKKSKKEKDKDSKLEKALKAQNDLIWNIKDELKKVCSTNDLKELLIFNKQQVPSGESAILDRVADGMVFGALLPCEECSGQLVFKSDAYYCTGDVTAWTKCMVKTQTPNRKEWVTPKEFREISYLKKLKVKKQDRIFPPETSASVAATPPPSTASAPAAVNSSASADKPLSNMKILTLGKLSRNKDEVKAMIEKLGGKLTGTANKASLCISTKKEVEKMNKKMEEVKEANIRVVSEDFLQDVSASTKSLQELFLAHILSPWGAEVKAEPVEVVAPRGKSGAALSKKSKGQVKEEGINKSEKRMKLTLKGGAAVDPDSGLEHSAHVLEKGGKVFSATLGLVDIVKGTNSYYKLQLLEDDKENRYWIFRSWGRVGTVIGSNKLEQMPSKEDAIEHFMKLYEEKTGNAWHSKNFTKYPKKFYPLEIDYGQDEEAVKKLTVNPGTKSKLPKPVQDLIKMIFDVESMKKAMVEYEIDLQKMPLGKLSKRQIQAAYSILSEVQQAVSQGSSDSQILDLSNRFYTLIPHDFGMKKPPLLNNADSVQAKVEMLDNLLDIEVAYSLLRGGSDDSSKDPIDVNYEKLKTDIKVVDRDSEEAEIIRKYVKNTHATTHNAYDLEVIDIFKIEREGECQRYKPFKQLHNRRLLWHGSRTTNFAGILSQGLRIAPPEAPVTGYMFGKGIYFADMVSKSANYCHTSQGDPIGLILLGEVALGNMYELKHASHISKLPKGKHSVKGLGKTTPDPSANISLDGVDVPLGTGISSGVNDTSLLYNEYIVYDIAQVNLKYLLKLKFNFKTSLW

MDA-MB-436 cells = assay: Inhibition of proliferation of MDA-MB-436 cells (CellTiter-Glo); type: cell-based; conditions: Homo sapiens, MDA-MB-436, 168 h, 7 days incubation
Outline: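 MDA-MB-436 cells seeded at 500-1000 cells/well, allowed to attach overnight, then treated with 9 concentrations from 10000 to 0.152 nM final (4-fold steps) in triplicate for 7 days at 37°C, 5% CO2. Viability by CellTiter-Glo luminescence; IC50 from fitted curve.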

in vivo [3] = conditions: BALB/c, mouse
Description: as §1, §2

in vivo [4] = conditions: SD, rat
Description: as §1, §2, §3

SMILES: Cc1nc2c(OC(F)F)cc(CN3CCN(c4ccc(C(=O)NC5CC5)nc4F)CC3)cc2[nH]c1=O [Example 46, N-cyclopropyl-5-(4-((8-(ditluoromethoxy)-2-methyl-3-oxo-3,4-dihydroquinoxalin-6-yl)methyl)piperazin-1-yl)-6-fluoropicolinamide]
AUC(0-t) ([1]; iv, 1 mg/kg): 4500 ng·h/mL
Cmax ([1]; iv, 1 mg/kg): 1410 ng/mL
half-life ([1]; iv, 1 mg/kg): 3.2 h
AUC(0-t) ([1]; po, 5 mg/kg): 21200 ng·h/mL
Cmax ([1]; po, 5 mg/kg): 2150 ng/mL
half-life ([1]; po, 5 mg/kg): 3.4 h
IC50 (DLD-1 BRCA2(-/-) cells): 3.2 nM
AUC(0-t) ([2]; iv, 2 mg/kg): 11300 ng·h/mL
Cmax ([2]; iv, 2 mg/kg): 6460 ng/mL
half-life ([2]; iv, 2 mg/kg): 1.6 h
AUC(0-t) ([2]; po, 5 mg/kg): 25300 ng·h/mL
Cmax ([2]; po, 5 mg/kg): 8750 ng/mL
half-life ([2]; po, 5 mg/kg): 2 h
IC50 (PARP2): 64 nM
IC50 (PARP1): 2.5 nM
Selectivity PARP2/PARP1 (PARP1): 25.0
IC50 (MDA-MB-436 cells): 0.2 nM

SMILES: CC#Cc1cc(CN2CC=C(c3ccc(C(=O)NC4CC4)nc3F)CC2)c(F)c2[nH]c(=O)c(C)nc12 [Example 41, N-cyclopropyl-2-fluoro-1'-((5-fluoro-2-methyl-3-oxo-8-(prop-1-yn-1-yl)-3,4-dihydroquinoxalin-6-yl)methyl)-1',2',3',6'-tetrahydro-[3,4'-bipyridine]-6-carboxamide]
AUC(0-t) ([1]; iv, 1 mg/kg): 1670 ng·h/mL
Cmax ([1]; iv, 1 mg/kg): 1720 ng/mL
half-life ([1]; iv, 1 mg/kg): 2.1 h
AUC(0-t) ([1]; po, 5 mg/kg): 7870 ng·h/mL
Cmax ([1]; po, 5 mg/kg): 3130 ng/mL
half-life ([1]; po, 5 mg/kg): 2.8 h
IC50 (DLD-1 BRCA2(-/-) cells): 37.4 nM
AUC(0-t) ([2]; iv, 2 mg/kg): 2230 ng·h/mL
Cmax ([2]; iv, 2 mg/kg): 3150 ng/mL
half-life ([2]; iv, 2 mg/kg): 1.3 h
AUC(0-t) ([2]; po, 5 mg/kg): 4630 ng·h/mL
Cmax ([2]; po, 5 mg/kg): 2720 ng/mL
half-life ([2]; po, 5 mg/kg): 1.9 h
IC50 (PARP2): > 10000 nM
IC50 (PARP1): 3.1 nM
Selectivity PARP2/PARP1 (PARP1): 3254.4
IC50 (MDA-MB-436 cells): 11.8 nM

SMILES: CC#Cc1cc(CN2CC=C(c3ccc(C(=O)NC)nc3F)CC2)cc2[nH]c(=O)c(C)nc12 [Example 12, 2-fluoro-N-methyl-1'-((2-methyl-3-oxo-8-(prop-1-yn-1-yl)-3,4-dihydroquinoxalin-6-yl)methyl)-1',2',3',6'-tetrahydro-[3,4'-bipyridine]-6-carboxamide]
IC50 (DLD-1 BRCA2(-/-) cells): 1.9 nM
AUC(0-t) (in vivo [3]; iv, 2 mg/kg): 1430 ng·h/mL
Cmax (in vivo [3]; iv, 2 mg/kg): 1630 ng/mL
half-life (in vivo [3]; iv, 2 mg/kg): 1.4 h
AUC(0-t) (in vivo [3]; po, 5 mg/kg): 4200 ng·h/mL
Cmax (in vivo [3]; po, 5 mg/kg): 2110 ng/mL
half-life (in vivo [3]; po, 5 mg/kg): 1.9 h
IC50 (MDA-MB-436 cells): 0.6 nM
AUC(0-t) (in vivo [4]; iv, 1 mg/kg): 1260 ng·h/mL
Cmax (in vivo [4]; iv, 1 mg/kg): 897 ng/mL
half-life (in vivo [4]; iv, 1 mg/kg): 2 h
AUC(0-t) (in vivo [4]; po, 5 mg/kg): 3770 ng·h/mL
Cmax (in vivo [4]; po, 5 mg/kg): 922 ng/mL
half-life (in vivo [4]; po, 5 mg/kg): 2.4 h

SMILES: CNC(=O)c1ccc(C2=CCN(Cc3cc(OC(F)F)c4nc(C)c(=O)[nH]c4c3)CC2)c(F)n1 [Example 15, 1'-((8-(difluoromethoxy)-2-methyl-3-oxo-3,4-dihydroquinoxalin-6-yl)methyl)-2-fluoro-N-methyl-1',2',3',6'-tetrahydro-[3,4'-bipyridine]-6-carboxamide]
AUC(0-t) ([1]; iv, 1 mg/kg): 6060 ng·h/mL
Cmax ([1]; iv, 1 mg/kg): 1560 ng/mL
half-life ([1]; iv, 1 mg/kg): 4.1 h
AUC(0-t) ([1]; po, 5 mg/kg): 31600 ng·h/mL
Cmax ([1]; po, 5 mg/kg): 3630 ng/mL
half-life ([1]; po, 5 mg/kg): 4.5 h
IC50 (DLD-1 BRCA2(-/-) cells): 4.1 nM
AUC(0-t) ([2]; iv, 2 mg/kg): 75300 ng·h/mL
Cmax ([2]; iv, 2 mg/kg): 13600 ng/mL
half-life ([2]; iv, 2 mg/kg): 3.8 h
AUC(0-t) ([2]; po, 5 mg/kg): 189000 ng·h/mL
Cmax ([2]; po, 5 mg/kg): 19000 ng/mL
half-life ([2]; po, 5 mg/kg): 4.2 h
IC50 (PARP2): 137 nM
IC50 (PARP1): 0.6 nM
Selectivity PARP2/PARP1 (PARP1): 248.4
IC50 (MDA-MB-436 cells): 1.3 nM

SMILES: CNC(=O)c1ccc(N2CCN(Cc3cc(OC(F)F)c4nc(C)c(=O)[nH]c4c3)CC2)c(F)n1 [Example 13, 5-(4-((8-(difluoromethoxy)-2-methyl-3-oxo-3,4-dihydroquinoxalin-6-yl)methyl)piperazin-1-yl)-6-fluoro-N-methylpicolinamide]
AUC(0-t) ([1]; iv, 1 mg/kg): 7720 ng·h/mL
Cmax ([1]; iv, 1 mg/kg): 2730 ng/mL
half-life ([1]; iv, 1 mg/kg): 3.2 h
AUC(0-t) ([1]; po, 5 mg/kg): 57900 ng·h/mL
Cmax ([1]; po, 5 mg/kg): 5810 ng/mL
half-life ([1]; po, 5 mg/kg): 4.4 h
IC50 (DLD-1 BRCA2(-/-) cells): 1.3 nM
AUC(0-t) ([2]; iv, 2 mg/kg): 17000 ng·h/mL
Cmax ([2]; iv, 2 mg/kg): 6560 ng/mL
half-life ([2]; iv, 2 mg/kg): 1.9 h
AUC(0-t) ([2]; po, 5 mg/kg): 33900 ng·h/mL
Cmax ([2]; po, 5 mg/kg): 11500 ng/mL
half-life ([2]; po, 5 mg/kg): 2.9 h
IC50 (PARP2): 183 nM
IC50 (PARP1): 0.713 nM
Selectivity PARP2/PARP1 (PARP1): 256.6
IC50 (MDA-MB-436 cells): 3.5 nM

SMILES: CNC(=O)c1ccc(N2CCN(Cc3cc(-c4ccccc4)c4nc(C)c(=O)[nH]c4c3)CC2)c(F)n1 [Example 2, 6-fluoro-N-methyl-5-(4-((2-methyl-3-oxo-8-phenyl-3,4-dihydroquinoxalin-6-yl)methyl)piperazin-1-yl)picolinamide]
AUC(0-t) ([1]; iv, 1 mg/kg): 1090 ng·h/mL
Cmax ([1]; iv, 1 mg/kg): 534 ng/mL
half-life ([1]; iv, 1 mg/kg): 2.1 h
AUC(0-t) ([1]; po, 5 mg/kg): 5610 ng·h/mL
Cmax ([1]; po, 5 mg/kg): 719 ng/mL
half-life ([1]; po, 5 mg/kg): 3.4 h
IC50 (DLD-1 BRCA2(-/-) cells): 22.9 nM
AUC(0-t) ([2]; iv, 2 mg/kg): 2870 ng·h/mL
Cmax ([2]; iv, 2 mg/kg): 942 ng/mL
half-life ([2]; iv, 2 mg/kg): 3.1 h
AUC(0-t) ([2]; po, 5 mg/kg): 8560 ng·h/mL
Cmax ([2]; po, 5 mg/kg): 1450 ng/mL
half-life ([2]; po, 5 mg/kg): 3.9 h
IC50 (PARP2): 3130 nM
IC50 (PARP1): 1.5 nM
Selectivity PARP2/PARP1 (PARP1): 2084.7
IC50 (MDA-MB-436 cells): 20.2 nM

More lines, now with the values ahead:

AUC(0-t) ([1]; iv, 1 mg/kg): 1990 ng·h/mL
Cmax ([1]; iv, 1 mg/kg): 653 ng/mL
half-life ([1]; iv, 1 mg/kg): 3.4 h
AUC(0-t) ([1]; po, 5 mg/kg): 13100 ng·h/mL
Cmax ([1]; po, 5 mg/kg): 1400 ng/mL
half-life ([1]; po, 5 mg/kg): 3.7 h
IC50 (DLD-1 BRCA2(-/-) cells): 4.6 nM
AUC(0-t) ([2]; iv, 2 mg/kg): 2140 ng·h/mL
Cmax ([2]; iv, 2 mg/kg): 1220 ng/mL
half-life ([2]; iv, 2 mg/kg): 1.9 h
AUC(0-t) ([2]; po, 5 mg/kg): 4890 ng·h/mL
Cmax ([2]; po, 5 mg/kg): 1780 ng/mL
half-life ([2]; po, 5 mg/kg): 2.4 h
IC50 (PARP2): 142 nM
IC50 (PARP1): 2.67 nM
Selectivity PARP2/PARP1 (PARP1): 53.2
IC50 (MDA-MB-436 cells): 7.5 nM
SMILES: CNC(=O)c1ccc(N2CCN(Cc3cc(OC(C)C)c4nc(C)c(=O)[nH]c4c3)CC2)c(F)n1 [Example 3, 6-fluoro-5-(4-((8-isopropoxy-2-methyl-3-oxo-3,4-dihydroquinoxalin-6-yl)methyl)piperazin-1-yl)-N-methylpicolinamide]

AUC(0-t) ([1]; iv, 1 mg/kg): 5680 ng·h/mL
Cmax ([1]; iv, 1 mg/kg): 2230 ng/mL
half-life ([1]; iv, 1 mg/kg): 2.4 h
AUC(0-t) ([1]; po, 5 mg/kg): 48300 ng·h/mL
Cmax ([1]; po, 5 mg/kg): 4970 ng/mL
half-life ([1]; po, 5 mg/kg): 2.8 h
IC50 (DLD-1 BRCA2(-/-) cells): 13 nM
AUC(0-t) ([2]; iv, 2 mg/kg): 2750 ng·h/mL
Cmax ([2]; iv, 2 mg/kg): 3750 ng/mL
half-life ([2]; iv, 2 mg/kg): 1.2 h
AUC(0-t) ([2]; po, 5 mg/kg): 4860 ng·h/mL
Cmax ([2]; po, 5 mg/kg): 2760 ng/mL
half-life ([2]; po, 5 mg/kg): 1.5 h
IC50 (PARP2): 90.2 nM
IC50 (PARP1): 2 nM
Selectivity PARP2/PARP1 (PARP1): 44.3
IC50 (MDA-MB-436 cells): 0.2 nM
SMILES: CC#Cc1cc(CN2CCN(c3ccc(C(=O)NC4CC4)nc3F)CC2)cc2[nH]c(=O)c(C)nc12 [Example 35, N-cyclopropyl-6-fluoro-5-(4-((2-methyl-3-oxo-8-(prop-1-yn-1-yl)-3,4-dihydroquinoxalin-6-yl)methyl)piperazin-1-yl)picolinamide]

AUC(0-t) ([1]; iv, 1 mg/kg): 3370 ng·h/mL
Cmax ([1]; iv, 1 mg/kg): 1170 ng/mL
half-life ([1]; iv, 1 mg/kg): 3.4 h
AUC(0-t) ([1]; po, 5 mg/kg): 22400 ng·h/mL
Cmax ([1]; po, 5 mg/kg): 2600 ng/mL
half-life ([1]; po, 5 mg/kg): 3.3 h
IC50 (DLD-1 BRCA2(-/-) cells): 2.5 nM
AUC(0-t) ([2]; iv, 2 mg/kg): 2140 ng·h/mL
Cmax ([2]; iv, 2 mg/kg): 1300 ng/mL
half-life ([2]; iv, 2 mg/kg): 1.6 h
AUC(0-t) ([2]; po, 5 mg/kg): 6370 ng·h/mL
Cmax ([2]; po, 5 mg/kg): 3230 ng/mL
half-life ([2]; po, 5 mg/kg): 1.8 h
IC50 (PARP2): 472 nM
IC50 (PARP1): 1.3 nM
Selectivity PARP2/PARP1 (PARP1): 362.1
IC50 (MDA-MB-436 cells): 10.7 nM
SMILES: CC#Cc1cc(CN2CCN(c3ccc(C(=O)NC)nc3F)CC2)cc2[nH]c(=O)c(C)nc12 [Example 7, 6-fluoro-N-methyl-5-(4-((2-methyl-3-oxo-8-(prop-1-yn-1-yl)-3,4-dihydroquinoxalin-6-yl)methyl)piperazin-1-yl)picolinamide]
